According to ChEMBL document CHEMBL1131358, “An approach to use an unusual adenosine transporter to selectively deliver polyamine analogues to trypanosomes” (Bioorg Med Chem Lett, 1998):
pIC50: −log10 of the molar value.

Tests used:
Trypanosoma brucei [1] = test: Inhibitory activity against adenosine uptake through P2 adenosine transporter of blood stream Trypanosoma brucei trypomastigotes at the concentration 100 ug/mL
Trypanosoma brucei [2] = test: Inhibitory activity against adenosine uptake through P2 adenosine transporter of blood stream Trypanosoma brucei trypomastigotes at the concentration 10 ug/mL
Trypanosoma brucei [3] = test: Inhibitory activity against adenosine uptake through P2 adenosine transporter of blood stream Trypanosoma brucei trypomastigotes at the concentration 1 ug/mL
[4] = tested on: Trypanosoma brucei brucei; test: In vitro activity against Trypanosoma brucei trypomastigotes form; format: functional, organism-based
[5] = tested on: Trypanosoma brucei brucei; test: In vitro activity against bloodstream from trypomastigotes.; format: functional, organism-based

Compound | inhibition (Trypanosoma brucei [1]) [%] | inhibition (Trypanosoma brucei [2]) [%] | inhibition (Trypanosoma brucei [3]) [%] | pIC50 [4] | pIC50 [5]
NCCCNCCCCN(CCCN)c1nc(N)nc(N)n1 | 60 | 44 | 24 | 4.92 | 
Nc1nc(N)nc(NCCCNCCCNCCCCCCCNCCCNCCCNc2nc(N)nc(N)n2)n1 | 88 | 18 | 0 |  | 4.62
N=C(N)c1ccc(/N=N/Nc2ccc(C(=N)N)cc2)cc1 [DIMINAZENE] | 99 | 84 | 67 |  | 8.52
Nc1[nH]cnc2ncnc1-2 | 99 | 89 | 88 |  | 
NCCCCN(CCCN)CCCNc1nc(N)nc(N)n1 | 61 | 5 | 7 | < 3.70 | 
NCCCCN(CCCN)c1nc(N)nc(N)n1 | 73 | 47 | 29 | < 3.57 | 

The next lines start with the values.

inhibition (Trypanosoma brucei [1]) [%] | inhibition (Trypanosoma brucei [2]) [%] | inhibition (Trypanosoma brucei [3]) [%] | pIC50 [4] | pIC50 [5] | Compound
93 | 63 | 36 |  | 3.96 | Nc1nc(N)nc(NCCCNCCCCCCCNCCCNc2nc(N)nc(N)n2)n1
37 | 17 | 2 | 4.62 |  | NCCCNCCCCN(CCCN)CCCNc1nc(N)nc(N)n1
77 | 32 | 12 |  | 4.68 | NCCCNCCCCCCCNCCCNc1nc(N)nc(N)n1
